Assay results taken from US11639352B2, “Benzothiazole compounds for the treatment of autoimmune diseases” (Hoffmann-La Roche Inc., priority 2018, dated 2023).

Target: T1, human TLR8 (Homo sapiens, UniProt Q9NR97)
T1 sequence (Q9NR97 27-1041): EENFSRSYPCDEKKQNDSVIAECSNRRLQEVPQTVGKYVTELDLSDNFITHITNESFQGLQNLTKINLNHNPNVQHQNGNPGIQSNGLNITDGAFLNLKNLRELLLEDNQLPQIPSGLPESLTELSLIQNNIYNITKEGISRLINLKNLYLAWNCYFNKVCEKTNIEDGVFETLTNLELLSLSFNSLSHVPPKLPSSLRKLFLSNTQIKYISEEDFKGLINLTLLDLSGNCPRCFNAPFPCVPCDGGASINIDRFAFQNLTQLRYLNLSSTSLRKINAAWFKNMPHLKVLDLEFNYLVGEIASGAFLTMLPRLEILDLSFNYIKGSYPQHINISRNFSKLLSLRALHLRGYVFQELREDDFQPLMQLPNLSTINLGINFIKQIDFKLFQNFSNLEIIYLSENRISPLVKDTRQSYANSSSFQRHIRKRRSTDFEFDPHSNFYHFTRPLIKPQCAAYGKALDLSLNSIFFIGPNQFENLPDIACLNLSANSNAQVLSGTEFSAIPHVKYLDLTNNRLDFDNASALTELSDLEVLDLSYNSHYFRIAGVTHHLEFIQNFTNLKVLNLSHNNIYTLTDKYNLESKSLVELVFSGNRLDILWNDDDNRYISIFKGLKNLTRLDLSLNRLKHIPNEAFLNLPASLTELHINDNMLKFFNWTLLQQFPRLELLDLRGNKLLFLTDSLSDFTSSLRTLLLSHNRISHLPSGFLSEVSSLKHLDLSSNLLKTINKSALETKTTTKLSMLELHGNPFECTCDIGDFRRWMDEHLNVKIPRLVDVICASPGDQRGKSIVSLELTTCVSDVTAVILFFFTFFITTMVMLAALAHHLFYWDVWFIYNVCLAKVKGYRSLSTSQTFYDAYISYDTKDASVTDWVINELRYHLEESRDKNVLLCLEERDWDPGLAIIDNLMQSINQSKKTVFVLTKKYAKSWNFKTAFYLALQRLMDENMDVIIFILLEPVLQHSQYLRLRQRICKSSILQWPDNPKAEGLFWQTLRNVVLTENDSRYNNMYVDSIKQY
Assay: HEK293-Blue-hTLR-8 cells assay (SEAP reporter, R848 stimulation)
Assay type: cell-based
Details: HEK293-Blue-hTLR8 cells, R848 ligand, 20 hrs incubation, antagonist
Procedure: The following tests were carried out in order to determine the activity of the compounds of formula (I) in HEK293-Blue-hTLR-7/8/9 cells assay.
HEK293-Blue-hTLR-8 Cells Assay:
A stable HEK293-Blue-hTLR-8 cell line was purchased from InvivoGen (Cat. #: hkb-htlr8, San Diego, Calif., USA). These cells were originally designed for studying the stimulation of human TLR8 by monitoring the activation of NF-κB. A SEAP (secreted embryonic alkaline phosphatase) reporter gene was placed under the control of the IFN-β minimal promoter fused to five NF-κB and AP-1-binding sites. The SEAP was induced by activating NF-κB and AP-1 via stimulating HEK-Blue hTLR8 cells with TLR8 ligands. Therefore the reporter expression was declined by TLR8 antagonist under the stimulation of a ligand, such as R848, for incubation of 20 hrs. The cell culture supernatant SEAP reporter activity was determined using QUANTI-Blue™ kit (Cat. #: rep-qb1, Invivogen, San Diego, Calif., USA) at a wavelength of 640 nm, a detection medium that turns purple or blue in the presence of alkaline phosphatase.
HEK293-Blue-hTLR8 cells were incubated at a density of 250,000˜450,000 cells/mL in a volume of 170 μL in a 96-well plate in Dulbecco's Modified Eagle's medium (DMEM) containing 4.5 g/L glucose, 50 U/mL penicillin, […], […], 2 mM L-glutamine, 10% (v/v) heat-inactivated fetal bovine serum with addition of 20 μL test compound in a serial dilution in the presence of final DMSO at 1% and 10 μL of 60 uM R848 in above DMEM, perform incubation under 37° C. in a CO2 incubator for 20 hrs. Then 20 μL of the supernatant from each well was incubated with 180 μL Quanti-blue substrate solution at 37° C. for 2 hrs and the absorbance was read at 620˜655 nm using a spectrophotometer. The signalling pathway that TLR8 activation leads to downstream NF-κB activation has been widely accepted, and therefore similar reporter assay was modified for evaluating TLR8 antagonist.

| Structure (SMILES) | IC50 |
| --- | --- |
| C[C@@H]1CN(c2ccc(C#N)c3ncsc23)C[C@H](CN2CC3(CCCNC3)C2)O1 [Example 4, 7-[(2S,6R)-2-(2,8-diazaspiro[3.5]nonan-2-ylmethyl)-6-methyl-morpholin-4-yl]-1,3-benzothiazole-4-carbonitrile] | 14 nM |
| C[C@@H]1CN(c2ccc(C#N)c3ncsc23)C[C@H](CN2CCC3(CCCN(C)C3)CC2)O1 [Example 10, 7-[(2R,6S)-2-methyl-6-[(2-methyl-2,9-diazaspiro[5.5]undecan-9-yl)methyl]morpholin-4-yl]-1,3-benzothiazole-4-carbonitrile] | < 3 nM |
| C[C@@H]1CN(c2ccc(C#N)c3ncsc23)C[C@H](CN2CCC3(CCCNC3)C2)O1 (stereo partly drawn) [Example 1, 7-[(2S,6R)-2-(2,9-diazaspiro[4.5]decan-2-ylmethyl)-6-methyl-morpholin-4-yl]-1,3-benzothiazole-4-carbonitrile] | < 3 nM |
| C[C@@H]1CN(c2ccc(C#N)c3ncsc23)C[C@H](C(=O)NC2CCN(C)CC2)O1 [Example 11, (2R,6R)-4-(4-cyano-1,3-benzothiazol-7-yl)-6-methyl-N-(1-methyl-4-piperidyl)morpholine-2-carboxamide] | < 3 nM |
| C[C@@H]1CN(c2ccc(C#N)c3ncsc23)C[C@H](CN2CCC3(CCNC3)CC2)O1 [Example 6, 7-[(2S,6R)-2-(2,8-diazaspiro[4.5]decan-8-ylmethyl)-6-methyl-morpholin-4-yl]-1,3-benzothiazole-4-carbonitrile] | 22 nM |
| C[C@@H]1CN(c2ccc(C#N)c3ncsc23)C[C@H](CN2CCC3(CCCNC3)CC2)O1 [Example 3, 7-[(2S,6R)-2-(2,9-diazaspiro[5.5]undecan-9-ylmethyl)-6-methyl-morpholin-4-yl]-1,3-benzothiazole-4-carbonitrile] | 12 nM |
| C[C@@H]1CN(c2ccc(C#N)c3ncsc23)C[C@H](CN2[C@@H]3CC[C@H]2C[C@@H](N)C3)O1 [Example 8, Endo-7-[(2S,6R)-2-[[(1R,5S)-3-amino-8-azabicyclo[3.2.1]octan-8-yl]methyl]-6-methyl-morpholin-4-yl]-1,3-benzothiazole-4-carbonitrile] | < 3 nM |
| C[C@@H]1CN(c2ccc(C#N)c3ncsc23)C[C@H](CN2[C@@H]3CC[C@H]2C[C@H](N)C3)O1 [Example 9, Exo-7-[(2S,6R)-2-[[(1S,5R)-3-amino-8-azabicyclo[3.2.1]octan-8-yl]methyl]-6-methyl-morpholin-4-yl]-1,3-benzothiazole-4-carbonitrile] | 8 nM |
| C[C@@H]1CN(c2ccc(C#N)c3ncsc23)C[C@H](CN2CCC(N3CCCCC3)CC2)O1 [Example 7, 7-[(2R,6S)-2-methyl-6-[[4-(1-piperidyl)-1-piperidyl]methyl]morpholin-4-yl]-1,3-benzothiazole-4-carbonitrile] | < 3 nM |
| C[C@@H]1CN(c2ccc(C#N)c3ncsc23)C[C@H](C(=O)NCC2CN(C)CCO2)O1 (stereo partly drawn) [Example 12, (2R,6R)-4-(4-cyano-1,3-benzothiazol-7-yl)-6-methyl-N-[(4-methylmorpholin-2-yl)methyl]morpholine-2-carboxamide] | < 3 nM |
| C[C@@H]1CN(c2ccc(C#N)c3ncsc23)C[C@H](CN2CCC3(CCNCC3)CC2)O1 [Example 5, 7-[(2S,6R)-2-(3,9-diazaspiro[5.5]undecan-3-ylmethyl)-6-methyl-morpholin-4-yl]-1,3-benzothiazole-4-carbonitrile] | 107 nM |
| C[C@@H]1CN(c2ccc(C#N)c3ncsc23)C[C@H](CN2CCC(N)CC2)O1 [Example 2, 7-[(2S,6R)-2-[(4-amino-1-piperidyl)methyl]-6-methyl-morpholin-4-yl]-1,3-benzothiazole-4-carbonitrile] | 5 nM |
